Source: paper PMC12428505, “A Bifunctional SARS-CoV-2 Entry Inhibitor Targeting the Host Protease TMPRSS2 and Viral Spike Protein HR1 Region” (International Journal of Molecular Sciences, 2025)
Like-named read-outs stand apart in the source and are kept apart here. *1 amine or outer side, *2 acyl side, *3 side chain or, on linkers, in order; H or OH if unused. Where a SMILES comes first, the peptide text is derived from it. [ ]: non-standard residue; d: D form. The star is where a group is joined. PEG24 = NCCOCCOCCOCCOCCOCCOCCOCCOCCOCCOCCOCCOCCOCCOCCOCCOCCOCCOCCOCCOCCOCCOCCOCCOCCC(=O)O; X1 = N=C(N)Nc1ccc(C(=O)Oc2ccc(CC(=O)OCC(=O)*)cc2)cc1; X2 = CN(Cc1cn(CC(=O)[*:2])nn1)[*:1]; X3 = O=C(Cn1cc(CN[*:1])nn1)[*:2]; PEG4 = NCCOCCOCCOCCOCCC(=O)O

Key:
wild-type SARS-CoV-2 PsV [1] = test: microbe, parasite or virus in culture; conditions: Severe acute respiratory syndrome coronavirus 2, Caco-2
wild-type SARS-CoV-2 PsV [2] = conditions: 48 h

Molecule: CN(C)C(=O)COC(=O)Cc1ccc(OC(=O)c2ccc(NC(=N)N)cc2)cc1 [Camostat]
- IC50 (wild-type SARS-CoV-2 PsV [1]): 4.6 ± 2.32 µM

Molecule: CC[C@H](C)[C@H](NC(=O)[C@H](CCCNC(=N)N)NC(=O)[C@H](CCSC)NC(=O)[C@H](CC(C)C)NC(=O)[C@H](CCC(=O)O)NC(=O)[C@H](Cc1ccc(O)cc1)NC(=O)[C@@H](NC(=O)[C@H](CCCCN)NC(=O)[C@H](CCC(N)=O)NC(=O)[C@H](CC(C)C)NC(=O)[C@@H](NC(=O)[C@H](Cc1c[nH]c2ccccc12)NC(=O)[C@H](CCC(=O)O)NC(=O)[C@H](CCCCN)NC(=O)[C@H](CC(=O)O)NC(=O)CCOCCOCCOCCOCCOCCOCCOCCOCCOCCOCCOCCOCCOCCOCCOCCOCCOCCOCCOCCOCCOCCOCCOCCOCCNC(=O)Cn1cc(CN(C)C(=O)COC(=O)Cc2ccc(OC(=O)c3ccc(NC(=N)N)cc3)cc2)nn1)[C@@H](C)CC)[C@@H](C)CC)C(=O)N[C@@H](CC(C)C)C(=O)N[C@@H](CC(=O)O)C(=O)N[C@@H](CCC(=O)O)C(=O)N[C@@H](CC(C)C)C(=O)NCC(=O)N[C@@H](Cc1c[nH]cn1)C(=O)N[C@@H](C)C(=O)N[C@@H](CCC(=O)O)C(=O)N[C@@H](C)C(=O)N[C@@H](CO)C(=O)N[C@@H](CCSC)C(=O)N[C@@H](CCCNC(=N)N)C(=O)N[C@H](C(=O)N[C@@H](CCC(=O)O)C(=O)N[C@@H](CC(=O)O)C(=O)N[C@@H](CC(C)C)C(=O)N[C@H](C(=O)N[C@@H](Cc1ccc(O)cc1)C(=O)N[C@@H](CCC(=O)O)C(=O)N[C@@H](Cc1ccccc1)C(=O)N[C@@H](CCSC)C(=O)N[C@@H](CCCCN)C(N)=O)[C@@H](C)CC)C(C)C [LP24X] (X1-[X2][PEG24]DKEWILQKIYELMRILDELGHAEASMRVEDLIYEFMK-NH2)
- IC50 (wild-type SARS-CoV-2 PsV [2]): 0.32 ± 0.03 µM

Molecule: CC[C@H](C)[C@H](NC(=O)[C@H](CCCNC(=N)N)NC(=O)[C@H](CCSC)NC(=O)[C@H](CC(C)C)NC(=O)[C@H](CCC(=O)O)NC(=O)[C@H](Cc1ccc(O)cc1)NC(=O)[C@@H](NC(=O)[C@H](CCCCN)NC(=O)[C@H](CCC(N)=O)NC(=O)[C@H](CC(C)C)NC(=O)[C@@H](NC(=O)[C@H](Cc1c[nH]c2ccccc12)NC(=O)[C@H](CCC(=O)O)NC(=O)[C@H](CCCCN)NC(=O)[C@H](CC(=O)O)NC(=O)CCOCCOCCOCCOCCNC(=O)Cn1cc(CNC(=O)COC(=O)Cc2ccc(OC(=O)c3ccc(NC(=N)N)cc3)cc2)nn1)[C@@H](C)CC)[C@@H](C)CC)C(=O)N[C@@H](CC(C)C)C(=O)N[C@@H](CC(=O)O)C(=O)N[C@@H](CCC(=O)O)C(=O)N[C@@H](CC(C)C)C(=O)NCC(=O)N[C@@H](Cc1c[nH]cn1)C(=O)N[C@@H](C)C(=O)N[C@@H](CCC(=O)O)C(=O)N[C@@H](C)C(=O)N[C@@H](CO)C(=O)N[C@@H](CCSC)C(=O)N[C@@H](CCCNC(=N)N)C(=O)N[C@H](C(=O)N[C@@H](CCC(=O)O)C(=O)N[C@@H](CC(=O)O)C(=O)N[C@@H](CC(C)C)C(=O)N[C@H](C(=O)N[C@@H](Cc1ccc(O)cc1)C(=O)N[C@@H](CCC(=O)O)C(=O)N[C@@H](Cc1ccccc1)C(=O)N[C@@H](CCSC)C(=O)N[C@@H](CCCCN)C(N)=O)[C@@H](C)CC)C(C)C [LP4Z] (X1-[X3][PEG4]DKEWILQKIYELMRILDELGHAEASMRVEDLIYEFMK-NH2)
- IC50 (wild-type SARS-CoV-2 PsV [2]): 0.45 ± 0.2 µM

Molecule: CC[C@H](C)[C@H](NC(=O)[C@H](CCCNC(=N)N)NC(=O)[C@H](CCSC)NC(=O)[C@H](CC(C)C)NC(=O)[C@H](CCC(=O)O)NC(=O)[C@H](Cc1ccc(O)cc1)NC(=O)[C@@H](NC(=O)[C@H](CCCCN)NC(=O)[C@H](CCC(N)=O)NC(=O)[C@H](CC(C)C)NC(=O)[C@@H](NC(=O)[C@H](Cc1c[nH]c2ccccc12)NC(=O)[C@H](CCC(=O)O)NC(=O)[C@H](CCCCN)NC(=O)[C@H](CC(=O)O)NC(=O)CCOCCOCCOCCOCCOCCOCCOCCOCCOCCOCCOCCOCCOCCOCCOCCOCCOCCOCCOCCOCCOCCOCCOCCOCCNC(=O)Cn1cc(CNC(=O)COC(=O)Cc2ccc(OC(=O)c3ccc(NC(=N)N)cc3)cc2)nn1)[C@@H](C)CC)[C@@H](C)CC)C(=O)N[C@@H](CC(C)C)C(=O)N[C@@H](CC(=O)O)C(=O)N[C@@H](CCC(=O)O)C(=O)N[C@@H](CC(C)C)C(=O)NCC(=O)N[C@@H](Cc1c[nH]cn1)C(=O)N[C@@H](C)C(=O)N[C@@H](CCC(=O)O)C(=O)N[C@@H](C)C(=O)N[C@@H](CO)C(=O)N[C@@H](CCSC)C(=O)N[C@@H](CCCNC(=N)N)C(=O)N[C@H](C(=O)N[C@@H](CCC(=O)O)C(=O)N[C@@H](CC(=O)O)C(=O)N[C@@H](CC(C)C)C(=O)N[C@H](C(=O)N[C@@H](Cc1ccc(O)cc1)C(=O)N[C@@H](CCC(=O)O)C(=O)N[C@@H](Cc1ccccc1)C(=O)N[C@@H](CCSC)C(=O)N[C@@H](CCCCN)C(N)=O)[C@@H](C)CC)C(C)C [LP24Z] (X1-[X3][PEG24]DKEWILQKIYELMRILDELGHAEASMRVEDLIYEFMK-NH2)
- IC50 (wild-type SARS-CoV-2 PsV [2]): 0.33 ± 0.01 µM

Molecule: Ac-DKEWILQKIYELMRILDELGHAEASMRVEDLIYEFMK-NH2 [LCB1T, reference compound]
- IC50 (wild-type SARS-CoV-2 PsV [2]): 0.44 ± 0.04 µM

Molecule: CC[C@H](C)[C@H](NC(=O)[C@H](CCCNC(=N)N)NC(=O)[C@H](CCSC)NC(=O)[C@H](CC(C)C)NC(=O)[C@H](CCC(=O)O)NC(=O)[C@H](Cc1ccc(O)cc1)NC(=O)[C@@H](NC(=O)[C@H](CCCCN)NC(=O)[C@H](CCC(N)=O)NC(=O)[C@H](CC(C)C)NC(=O)[C@@H](NC(=O)[C@H](Cc1c[nH]c2ccccc12)NC(=O)[C@H](CCC(=O)O)NC(=O)[C@H](CCCCN)NC(=O)[C@H](CC(=O)O)NC(=O)CCOCCOCCOCCOCCNC(=O)Cn1cc(CN(C)C(=O)COC(=O)Cc2ccc(OC(=O)c3ccc(NC(=N)N)cc3)cc2)nn1)[C@@H](C)CC)[C@@H](C)CC)C(=O)N[C@@H](CC(C)C)C(=O)N[C@@H](CC(=O)O)C(=O)N[C@@H](CCC(=O)O)C(=O)N[C@@H](CC(C)C)C(=O)NCC(=O)N[C@@H](Cc1c[nH]cn1)C(=O)N[C@@H](C)C(=O)N[C@@H](CCC(=O)O)C(=O)N[C@@H](C)C(=O)N[C@@H](CO)C(=O)N[C@@H](CCSC)C(=O)N[C@@H](CCCNC(=N)N)C(=O)N[C@H](C(=O)N[C@@H](CCC(=O)O)C(=O)N[C@@H](CC(=O)O)C(=O)N[C@@H](CC(C)C)C(=O)N[C@H](C(=O)N[C@@H](Cc1ccc(O)cc1)C(=O)N[C@@H](CCC(=O)O)C(=O)N[C@@H](Cc1ccccc1)C(=O)N[C@@H](CCSC)C(=O)N[C@@H](CCCCN)C(N)=O)[C@@H](C)CC)C(C)C [LP4X] (X1-[X2][PEG4]DKEWILQKIYELMRILDELGHAEASMRVEDLIYEFMK-NH2)
- IC50 (wild-type SARS-CoV-2 PsV [2]): 0.4 ± 0.06 µM
